The values below come from PMC9921564, “Novel Indole-Containing Hybrids Derived from Millepachine: Synthesis, Biological Evaluation and Antitumor Mechanism Study” (Molecules, 2023).

Assay [1] concerns L-02 (normal human hepatocytes). Description: CCK-8 cytotoxicity, L-02 normal cells. In kind it is cell-based. From the text: (§1) A549 (non-small-cell-lung cancer cell line), Caski (human epithelial cervical cancer cell line), HepG2 (human liver carcinoma cell line), MCF-7 (human breast carcinoma cell line), C42B (human prostate cancer line C42B), L-02 (human normal hepatocytes), RWPE-1 (human prostate epithelial cells) and MCF-10A (human normal mammary epithelial cells) were obtained from National Collection of Authenticated Cell Cultures (Shanghai, China). A549/CDDP (A549 cell line resistant to cisplatin), C42B/ENZR (C42b cell line resistant to Enzalutamide), MCF-7/DOX (MCF-7 cell line resistant to doxorubicin), A2780/TAX (human ovarian cancer cell line A2780 resistant to taxol) and HCT-8/VCR (human ileocecum carcinoma cell lines HCT-8 resistant to vincristine) were kindly provided by Professor Junjian Wang and Professor Xingshu Li at Sun Yat-Sen University, China. […]
(§2) After 24 h, the medium containing different concentrations of tested compounds were added for another 48 h. […] The optical density was recorded with a microplate reader at 570 nm (Thermo Scientific, Varioskan LUX). All the experiments were repeated independently at least three times and the IC50 values were calculated […]

Assay [2] deals with tubulin (colchicine binding site) (Sus scrofa, UniProt P02554). Description: colchicine competitive inhibition (binding) assay. The procedure:
Tubulin–microtubule homeostasis is crucial for cell mitosis.
Figure 2 Effect of compound 14b on tubulin. […] The experiments were performed at least three times, and representative images are shown. Scale bars are 10 μm. […] The backbone of tubulin is shown in ribbon representation (α-tubulin, yellow; β-tubulin, green). […] The data were shown as mean ± SE (standard error) of at least three independent experiments.

For assay [3], the system named is A2780 (human ovarian cancer cell line). Description: CCK-8 cytotoxicity, A2780. The format is cell-based. The following applies: 48 h, read-out: IC50, Mean ± SE, A2780. The procedure: (§3) Besides the high cytotoxicity, drug resistance is the other limiting factor of chemotherapeutics. In this study, the cytotoxicities of compound 14b towards five kinds of drug-resistant cancer cell lines were also evaluated. Except three kinds of cell lines that are resistant to three drugs commonly used in clinical practice, two kinds of cell lines that are resistant to MTAs were also evaluated.
(§4) A549 (non-small-cell-lung cancer cell line), Caski (human epithelial cervical cancer cell line), HepG2 (human liver carcinoma cell line), MCF-7 (human breast carcinoma cell line), C42B (human prostate cancer line C42B), L-02 (human normal hepatocytes), RWPE-1 (human prostate epithelial cells) and MCF-10A (human normal mammary epithelial cells) were obtained from National Collection of Authenticated Cell Cultures (Shanghai, China). […]
as §2

For assay [4], the system named is C42B/ENZR (C42b cell line resistant to Enzalutamide). Description: CCK-8 cytotoxicity, C42B/ENZR. The format is cell-based. The following applies: Homo sapiens; 48 h, CCK-8, Enzalutamide-resistant; read-out: IC50, Mean ± SE, C42B/ENZR. The procedure:
as §3, §4, §2
The fluorescence intensity enhancement (emission wavelength is 410 nm, excitation wavelength is 340 nm) was recorded every 60 s for 60 min in a multifunction microplate reader (Molecular Devices, Flex Station 3). […]

The subject of assay [5] is MCF-10A (normal human mammary epithelial cells). Description: CCK-8 cytotoxicity, MCF-10A normal cells. In kind it is cell-based.
Excerpt: as §1, §2

Turning to `COc1ccc(C(=O)c2ccc3c(ccn3C)c2)c2c1C=CC(C)(C)O2` [compound 14b, (5-methoxy-2,2-dimethyl-2H-chromen-8-yl)(1-methyl-1H-indol-5-yl)methanone], the IC50 stood at 1.26 ± 0.214 µM in assay [1] (Homo sapiens, Hepatocyte, 48 h, CCK-8, normal cells, read-out: IC50, Mean ± SE, L-02); 1.04 ± 0.02 µM in assay [2]; 0.036 ± 0.004 µM in assay [3]; 0.042 ± 0.011 µM in assay [4]; 6.26 ± 0.311 µM in assay [5] (Homo sapiens, MCF-10A, 48 h, CCK-8, normal cells, read-out: IC50, Mean ± SE, MCF-10A). Moreover, the “Selectivity Ratio” value amounted to 16.97 in assay [1] (IC50 L-02 / IC50 Hep-G2) and 231.7 in assay [5] (IC50 MCF-10A / IC50 MCF-7).
